Data published in ChEMBL document CHEMBL1201862, “PubChem BioAssay data set” (2004).
The source made the active and inactive calls.

Tests used:
Cytochrome P450 2C9 = Cytochrome P450 2C9 (Homo sapiens, UniProt P11712); conditions: Potency
[1] = biological target: DNA dC->dU-editing enzyme APOBEC-3G (Homo sapiens, UniProt Q9HC16); experiment: Dose Response confirmation of small molecule APOBEC3G DNA Deaminase Inhibitors via a fluorescence-based single-stranded DNA deaminase assay. [Related pubchem assays (depositor defined):AID493012, AID493028]; type: functional
Chain of DNA dC->dU-editing enzyme APOBEC-3G (Q9HC16 whole entry): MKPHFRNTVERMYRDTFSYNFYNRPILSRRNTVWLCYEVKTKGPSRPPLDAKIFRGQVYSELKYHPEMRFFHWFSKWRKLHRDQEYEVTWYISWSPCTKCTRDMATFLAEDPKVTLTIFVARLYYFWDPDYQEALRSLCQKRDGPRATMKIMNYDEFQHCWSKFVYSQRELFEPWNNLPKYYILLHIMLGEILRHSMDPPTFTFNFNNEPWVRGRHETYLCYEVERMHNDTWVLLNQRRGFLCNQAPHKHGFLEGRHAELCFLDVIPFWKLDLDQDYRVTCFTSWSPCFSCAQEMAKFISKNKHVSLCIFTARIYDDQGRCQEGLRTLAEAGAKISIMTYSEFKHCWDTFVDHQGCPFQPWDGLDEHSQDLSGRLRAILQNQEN

[2] = biological target: Glucose-6-phosphate 1-dehydrogenase (Homo sapiens, UniProt P11413); experiment: inhibition of Homo sapiens G6PD, dose series – biochemical, fluorescence, selectivity assay for P. falciparum G6PD inhibitor project, dose response (AID 504792); type: functional
Chain of Glucose-6-phosphate 1-dehydrogenase (P11413 whole entry): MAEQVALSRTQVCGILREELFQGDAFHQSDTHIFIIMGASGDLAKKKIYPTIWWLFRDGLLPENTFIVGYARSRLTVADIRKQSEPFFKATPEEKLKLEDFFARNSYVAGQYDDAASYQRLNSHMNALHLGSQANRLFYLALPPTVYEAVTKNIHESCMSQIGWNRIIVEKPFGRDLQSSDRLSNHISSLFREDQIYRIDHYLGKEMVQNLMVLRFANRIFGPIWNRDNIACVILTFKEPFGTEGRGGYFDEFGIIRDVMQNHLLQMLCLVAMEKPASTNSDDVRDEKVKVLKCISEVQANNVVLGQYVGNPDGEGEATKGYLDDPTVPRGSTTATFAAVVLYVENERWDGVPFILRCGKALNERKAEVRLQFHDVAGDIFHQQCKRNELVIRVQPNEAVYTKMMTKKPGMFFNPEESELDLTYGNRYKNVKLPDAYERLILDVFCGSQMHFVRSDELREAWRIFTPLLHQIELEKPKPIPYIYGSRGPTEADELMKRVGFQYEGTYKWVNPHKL

Large T antigen = Large T antigen (Simian virus 40, UniProt P03070); type: functional, Betapolyomavirus macacae;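 also: Confirmatory-stage PubChem screen for compounds that inhibit SV40 T antigen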
[3] = biological target: DNA dC->dU-editing enzyme APOBEC-3A (Homo sapiens, UniProt P31941); experiment: A3A deaminase inhibition for selectivity – biochemical, dose response (AID 504722); type: functional
Chain of DNA dC->dU-editing enzyme APOBEC-3A (P31941 whole entry): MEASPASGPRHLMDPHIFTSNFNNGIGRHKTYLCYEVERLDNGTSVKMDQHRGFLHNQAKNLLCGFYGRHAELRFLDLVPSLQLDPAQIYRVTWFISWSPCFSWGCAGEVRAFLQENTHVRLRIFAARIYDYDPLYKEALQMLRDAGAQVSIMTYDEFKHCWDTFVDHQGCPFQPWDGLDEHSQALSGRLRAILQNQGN

[4] = microbe, parasite or virus in culture; type: functional; conditions: Mycobacterium tuberculosis
[5] = Luminescence Cell-Based Dose Retest to Confirm Inhibitors of Cancer Stem Cells. [Related pubchem assays (depositor defined):AID2717, AID2721]; type: functional, Homo sapiens; conditions: Homo sapiens
Streptococcus = experiment: GAS UMAA2166 growth inhibition – luminescence, BacTiterGlo, counter-screen for streptokinase expression inhibitor project, dose response (AID 1915); type: functional, organism-based; conditions: Streptococcus;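 also: potency for reduction of bacterial viability or growth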
Streptokinase A = biological target: T1, Streptokinase A (Streptococcus pyogenes serotype M1, UniProt P10520); experiment: viability-normalized secreted streptokinase activity reduction – plasminogen activation absorbance, OD405, dose response (AID 1914); type: functional, Streptococcus pyogenes M1 GAS;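 also: secreted streptokinase activity via plasminogen activation per viability signal from cell pellet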
T1 sequence (P10520 whole entry): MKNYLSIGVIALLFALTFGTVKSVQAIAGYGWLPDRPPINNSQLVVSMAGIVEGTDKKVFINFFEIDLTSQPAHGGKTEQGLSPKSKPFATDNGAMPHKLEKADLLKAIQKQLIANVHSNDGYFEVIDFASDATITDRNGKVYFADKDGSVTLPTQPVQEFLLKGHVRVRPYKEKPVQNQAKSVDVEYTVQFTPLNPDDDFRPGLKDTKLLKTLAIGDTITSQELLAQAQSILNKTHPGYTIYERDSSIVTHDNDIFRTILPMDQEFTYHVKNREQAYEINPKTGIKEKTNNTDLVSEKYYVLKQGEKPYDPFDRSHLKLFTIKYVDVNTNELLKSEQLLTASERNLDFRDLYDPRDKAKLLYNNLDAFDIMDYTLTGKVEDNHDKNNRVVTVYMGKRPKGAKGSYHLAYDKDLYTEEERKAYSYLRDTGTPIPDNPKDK

INS1 = experiment: INS-1E survival protection against cytokine death – cell-based, luminescence, retest, dose response (AID 449756); type: functional; conditions: Rattus norvegicus;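 also: cell death triggered by IL-1 beta plus TNF-alpha plus IFN-gamma mixture; protective hits raise ATP signal compared with cytokine alone wells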
Beta-galactosidase [6] = biological target: T2, Beta-galactosidase (Escherichia coli, UniProt Q8VNN2); experiment: detection-enzyme interference by beta-gal modulators – biochemical, E. coli enzyme, set 3, artefact control for CCR6 antagonist project, dose response (AID 504712); type: functional
T2 sequence (Q8VNN2 whole entry): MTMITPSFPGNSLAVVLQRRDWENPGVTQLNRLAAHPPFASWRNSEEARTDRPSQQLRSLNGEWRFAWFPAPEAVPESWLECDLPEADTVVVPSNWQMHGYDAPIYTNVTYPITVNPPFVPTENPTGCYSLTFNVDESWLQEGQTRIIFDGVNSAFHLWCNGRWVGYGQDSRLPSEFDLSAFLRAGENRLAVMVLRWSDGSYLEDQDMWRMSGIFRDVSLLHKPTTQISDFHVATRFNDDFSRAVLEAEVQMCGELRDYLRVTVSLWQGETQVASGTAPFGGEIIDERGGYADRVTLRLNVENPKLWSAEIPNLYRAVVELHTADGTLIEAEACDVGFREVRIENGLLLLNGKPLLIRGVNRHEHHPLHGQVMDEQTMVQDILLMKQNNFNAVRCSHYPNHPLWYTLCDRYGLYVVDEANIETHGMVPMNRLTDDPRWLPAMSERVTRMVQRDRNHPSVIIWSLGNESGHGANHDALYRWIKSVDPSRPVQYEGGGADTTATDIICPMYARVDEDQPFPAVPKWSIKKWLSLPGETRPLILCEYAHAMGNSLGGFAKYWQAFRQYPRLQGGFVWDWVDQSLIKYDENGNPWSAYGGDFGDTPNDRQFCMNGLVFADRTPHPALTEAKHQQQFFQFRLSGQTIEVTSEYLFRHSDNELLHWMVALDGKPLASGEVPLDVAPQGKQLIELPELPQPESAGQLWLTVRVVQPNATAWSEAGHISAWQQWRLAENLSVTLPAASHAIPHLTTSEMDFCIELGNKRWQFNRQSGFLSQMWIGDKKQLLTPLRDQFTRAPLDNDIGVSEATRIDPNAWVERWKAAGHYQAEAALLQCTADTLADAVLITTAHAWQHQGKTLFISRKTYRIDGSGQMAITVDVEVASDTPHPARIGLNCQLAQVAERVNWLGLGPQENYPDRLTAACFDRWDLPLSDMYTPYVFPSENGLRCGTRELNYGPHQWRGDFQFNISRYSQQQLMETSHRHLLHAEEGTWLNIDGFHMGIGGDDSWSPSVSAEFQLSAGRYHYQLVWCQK

[7] = tested on: Streptococcus sp. 'group A'; experiment: Streptococcus pyogenes SK(-)GAS viability under kanamycin – luminescence, BacTiterGlo, confirmation, counter-screen for streptokinase expression inhibitor project, dose response (AID 1900); type: functional, organism-based; conditions: Streptococcus sp. 'group A'
Beta-galactosidase [8] = biological target: T2, Beta-galactosidase; type: functional
[9] = biological target: T3, Kappa-type opioid receptor (Homo sapiens, UniProt P41145); type: functional
T3 sequence (P41145 whole entry): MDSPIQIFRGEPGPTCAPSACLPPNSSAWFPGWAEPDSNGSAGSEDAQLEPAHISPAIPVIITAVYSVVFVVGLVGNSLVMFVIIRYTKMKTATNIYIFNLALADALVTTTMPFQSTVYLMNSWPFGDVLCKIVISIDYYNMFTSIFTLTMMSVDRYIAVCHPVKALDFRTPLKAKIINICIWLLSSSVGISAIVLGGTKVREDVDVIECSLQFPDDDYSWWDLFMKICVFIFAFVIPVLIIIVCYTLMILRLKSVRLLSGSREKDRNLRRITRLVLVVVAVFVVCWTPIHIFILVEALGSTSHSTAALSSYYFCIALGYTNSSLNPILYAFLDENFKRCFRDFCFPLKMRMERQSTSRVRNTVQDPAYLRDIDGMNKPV

[10] = biological target: T3, Kappa-type opioid receptor; type: functional; remark: listed apart in the source
Cytochrome P450 3A4 [11] = biological target: T4, Cytochrome P450 3A4 (Homo sapiens, UniProt P08684)
T4 sequence (P08684 whole entry): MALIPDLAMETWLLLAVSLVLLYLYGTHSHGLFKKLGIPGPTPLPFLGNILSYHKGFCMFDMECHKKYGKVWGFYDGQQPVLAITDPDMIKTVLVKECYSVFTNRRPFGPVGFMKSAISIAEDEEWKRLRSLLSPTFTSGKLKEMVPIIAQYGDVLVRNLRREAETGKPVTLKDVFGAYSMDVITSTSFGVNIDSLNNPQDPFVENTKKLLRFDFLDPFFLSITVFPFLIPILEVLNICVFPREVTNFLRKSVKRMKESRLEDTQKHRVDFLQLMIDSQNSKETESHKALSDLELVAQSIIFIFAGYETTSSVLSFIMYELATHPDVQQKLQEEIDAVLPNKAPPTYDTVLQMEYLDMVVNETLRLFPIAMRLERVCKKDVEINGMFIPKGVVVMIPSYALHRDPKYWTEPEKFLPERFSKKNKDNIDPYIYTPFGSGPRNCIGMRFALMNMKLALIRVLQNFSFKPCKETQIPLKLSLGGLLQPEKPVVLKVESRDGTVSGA

[12] = biological target: FAD-linked sulfhydryl oxidase ALR (Homo sapiens, UniProt P55789); experiment: ALR-catalysed DTT oxidation blockers – biochemical, H2O2 detection, luminescence, cherry-pick, dose response (AID 493248)
[13] = A Cell Based Secondary Assay To Explore Cytotoxicity of Compounds that Sensitize Mycobacterium Tuberculosis to Beta-Lactam Antibiotics.; type: functional
SUMO-activating enzyme [14] = biological target: T5, SUMO-activating enzyme (Homo sapiens, UniProt Q9UBT2); experiment: blockers of UBC9-mediated SUMO conjugation – biochemical, AlphaScreen, SUMOylation inhibitor project, confirmation (AID 2018); type: functional
T5 sequence (Q9UBE0 whole entry): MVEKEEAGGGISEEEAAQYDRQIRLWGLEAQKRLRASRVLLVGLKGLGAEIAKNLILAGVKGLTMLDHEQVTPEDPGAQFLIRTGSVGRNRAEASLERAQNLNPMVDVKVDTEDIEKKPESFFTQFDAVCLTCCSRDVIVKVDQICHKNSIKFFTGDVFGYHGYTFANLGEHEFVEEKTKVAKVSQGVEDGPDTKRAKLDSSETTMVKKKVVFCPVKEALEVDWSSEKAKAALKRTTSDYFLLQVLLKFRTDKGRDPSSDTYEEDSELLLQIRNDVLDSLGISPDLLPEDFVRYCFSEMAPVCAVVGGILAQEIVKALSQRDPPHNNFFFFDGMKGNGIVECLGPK
T5 sequence (Q9UBT2 whole entry): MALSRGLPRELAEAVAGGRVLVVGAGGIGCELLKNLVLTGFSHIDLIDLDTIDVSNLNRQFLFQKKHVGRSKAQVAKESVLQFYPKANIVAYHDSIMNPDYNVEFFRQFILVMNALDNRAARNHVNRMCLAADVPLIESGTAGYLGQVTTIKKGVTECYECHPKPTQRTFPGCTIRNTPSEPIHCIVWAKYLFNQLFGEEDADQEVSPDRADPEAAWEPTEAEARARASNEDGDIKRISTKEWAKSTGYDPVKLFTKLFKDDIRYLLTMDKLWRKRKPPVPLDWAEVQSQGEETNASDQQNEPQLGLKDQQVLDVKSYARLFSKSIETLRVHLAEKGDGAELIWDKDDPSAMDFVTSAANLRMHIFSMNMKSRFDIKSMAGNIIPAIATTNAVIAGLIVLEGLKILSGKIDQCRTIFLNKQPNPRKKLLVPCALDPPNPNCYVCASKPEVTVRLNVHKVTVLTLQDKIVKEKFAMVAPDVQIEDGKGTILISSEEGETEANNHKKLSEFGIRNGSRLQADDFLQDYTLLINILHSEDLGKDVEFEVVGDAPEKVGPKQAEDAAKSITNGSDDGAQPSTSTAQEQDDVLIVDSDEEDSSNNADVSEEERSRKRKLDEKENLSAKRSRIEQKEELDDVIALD

[15] = biological target: T6, Voltage-gated N-type calcium channel alpha-1B subunit/Amyloid beta A4 precursor protein-binding family A member 1 (Homo sapiens, UniProt Q00975+Q02410); type: protein assay
Estrogen receptor = biological target: T7, Estrogen receptor (Homo sapiens, UniProt P03372);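 also: potency for inhibiting coactivator peptide recruitment to the receptor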
T7 sequence (P03372 whole entry): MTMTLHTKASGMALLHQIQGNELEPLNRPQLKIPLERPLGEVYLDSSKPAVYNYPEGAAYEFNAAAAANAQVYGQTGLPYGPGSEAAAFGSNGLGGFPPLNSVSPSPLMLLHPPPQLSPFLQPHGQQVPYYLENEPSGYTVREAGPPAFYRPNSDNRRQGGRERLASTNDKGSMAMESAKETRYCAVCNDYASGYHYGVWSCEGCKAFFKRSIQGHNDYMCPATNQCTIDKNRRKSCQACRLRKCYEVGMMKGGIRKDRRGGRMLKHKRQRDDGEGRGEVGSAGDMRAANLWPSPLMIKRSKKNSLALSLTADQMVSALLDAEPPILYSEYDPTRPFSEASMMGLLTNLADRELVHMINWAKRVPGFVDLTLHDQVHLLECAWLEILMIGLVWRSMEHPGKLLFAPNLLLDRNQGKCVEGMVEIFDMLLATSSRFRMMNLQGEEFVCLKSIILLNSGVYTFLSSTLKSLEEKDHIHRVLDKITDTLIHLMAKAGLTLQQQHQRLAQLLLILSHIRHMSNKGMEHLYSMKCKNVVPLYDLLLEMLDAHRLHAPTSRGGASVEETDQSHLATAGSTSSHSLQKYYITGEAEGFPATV

[16] = biological target: T6, Voltage-gated N-type calcium channel alpha-1B subunit/Amyloid beta A4 precursor protein-binding family A member 1; type: protein assay; remark: listed apart in the source
SUMO-activating enzyme [17] = biological target: T5, SUMO-activating enzyme; experiment: blockers of SAE1/SAE2–UBC9 SUMO transfer – biochemical, HTRF, uHTS, primary screen (AID 2006); type: protein-complex assay
Estrogen receptor beta [18] = biological target: T8, Estrogen receptor beta (Homo sapiens, UniProt Q92731); experiment: blockers of SRC-3 recruitment to ERβ – biochemical, ELISA, streptavidin-HRP readout, orthogonal assay, confirmation (AID 1060)
Estrogen receptor beta [19] = biological target: T8, Estrogen receptor beta
[20] = biological target: T9, Methionyl-tRNA synthetase, putative (Trypanosoma brucei brucei, UniProt Q38C91); type: functional, Trypanosoma brucei brucei strain 927/4 GUTat10.1
T9 sequence (Q38C91 whole entry): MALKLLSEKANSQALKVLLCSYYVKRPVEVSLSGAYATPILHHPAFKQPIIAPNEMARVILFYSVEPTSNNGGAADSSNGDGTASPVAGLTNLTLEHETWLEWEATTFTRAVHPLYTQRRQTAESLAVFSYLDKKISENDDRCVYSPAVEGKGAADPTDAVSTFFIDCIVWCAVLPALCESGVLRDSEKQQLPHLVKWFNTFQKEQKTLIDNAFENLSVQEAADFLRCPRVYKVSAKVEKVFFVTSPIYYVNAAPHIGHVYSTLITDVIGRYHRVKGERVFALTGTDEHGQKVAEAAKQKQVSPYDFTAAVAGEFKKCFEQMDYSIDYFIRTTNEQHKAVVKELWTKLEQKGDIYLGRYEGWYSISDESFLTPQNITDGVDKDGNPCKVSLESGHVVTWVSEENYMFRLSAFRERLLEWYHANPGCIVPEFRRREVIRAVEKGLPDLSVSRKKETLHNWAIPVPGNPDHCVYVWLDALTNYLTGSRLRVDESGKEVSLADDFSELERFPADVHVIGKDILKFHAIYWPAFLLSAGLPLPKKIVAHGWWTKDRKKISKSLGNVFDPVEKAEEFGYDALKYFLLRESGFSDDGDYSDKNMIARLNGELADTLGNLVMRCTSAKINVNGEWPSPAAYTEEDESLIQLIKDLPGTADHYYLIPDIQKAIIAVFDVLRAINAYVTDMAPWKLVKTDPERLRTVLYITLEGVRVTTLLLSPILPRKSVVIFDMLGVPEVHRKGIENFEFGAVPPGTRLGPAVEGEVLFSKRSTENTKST

[21] = biological target: Protein-tyrosine kinase 2-beta (Homo sapiens, UniProt Q14289);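 also: potency of inhibitors of PYK2 kinase phosphorylation of poly-GT substrate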
[22] = biological target: T9, Methionyl-tRNA synthetase, putative; type: functional, Trypanosoma brucei brucei strain 927/4 GUTat10.1; remark: listed apart in the source
[23] = Counterscreen for inhibitors of Trypanosoma brucei methionyl tRNA synthetase (MetRS): Luminescence-based cell-based high throughput dose response assay to identify compounds that are cytotoxic to Jurkat human T lymphocyte cells.; type: functional
[24] = biological target: Dual specificity tyrosine-phosphorylation-regulated kinase 1A (Rattus norvegicus, UniProt Q63470); type: biochemical, Homo sapiens
H4 = experiment: Luminescence Cell-Based Dose Response HTS to Identify Activators of 5'UTR Stem-Loop Driven Prion Protein mRNA Translation in H4 Neuroglioblastoma Cells. [Related pubchem assays: 1829 (Project Summary), 1814 (Primary HTS)]; type: functional; conditions: Homo sapiens
[25] = Luminescence Cell-Based Dose Response HTS to Identify Activators of Luciferase Translation or Activity in H4 […] Cells. [Related pubchem assays: 1829 (Project Summary), 1814 (Primary HTS)]; type: functional
[26] = Luminescence Cell-Based Dose Confirmation HTS to Identify Activators of 5'UTR Stem-Loop Driven Alpha-Synuclein mRNA Translation in H4 Neuroglioblastoma Cells. [Related pubchem assays: 1829 (Project Summary), 1814 (Primary HTS)]; type: functional
[27] = Vero E6 cell cytotoxicity, dose response, cytotoxicity control for non-replicating M. tuberculosis project, secondary assay (AID 492998); type: functional, VeroE6; conditions: Vero C1008
Nonstructural protein 1 = Nonstructural protein 1 (Influenza A virus, UniProt Q194T2); type: functional, Influenza A virus (A/California/07/2009(H1N1))
Chain of Nonstructural protein 1 (Q194T2 whole entry): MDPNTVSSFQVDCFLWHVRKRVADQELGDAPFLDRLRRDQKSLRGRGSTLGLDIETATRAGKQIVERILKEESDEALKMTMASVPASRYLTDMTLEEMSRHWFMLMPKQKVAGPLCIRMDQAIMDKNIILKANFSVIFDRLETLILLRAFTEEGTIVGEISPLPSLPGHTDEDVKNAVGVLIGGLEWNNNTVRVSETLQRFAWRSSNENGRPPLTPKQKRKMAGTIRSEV

cells = type: functional
[28] = THP-1 cell cytotoxicity, dose response, cytotoxicity control for non-replicating M. tuberculosis project (AID 489025); type: functional
Cytochrome P450 3A4 [29] = biological target: T4, Cytochrome P450 3A4; conditions: Potency
Trypsin = Trypsin (Sus scrofa, UniProt P00761); experiment: trypsin protease activity blockade – biochemical, quenched peptide fluorescence, cherry-pick, selectivity assay for Rce1 protease inhibitor project, dose response (AID 488789)
Chain of Trypsin (P00761 whole entry): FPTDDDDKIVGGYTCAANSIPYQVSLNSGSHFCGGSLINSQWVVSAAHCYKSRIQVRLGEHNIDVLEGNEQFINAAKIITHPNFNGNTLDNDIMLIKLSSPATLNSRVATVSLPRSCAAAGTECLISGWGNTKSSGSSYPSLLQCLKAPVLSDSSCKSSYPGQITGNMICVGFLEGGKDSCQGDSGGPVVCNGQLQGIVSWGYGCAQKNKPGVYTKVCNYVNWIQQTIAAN

Chain of Cytochrome P450 2C9 (P11712 whole entry): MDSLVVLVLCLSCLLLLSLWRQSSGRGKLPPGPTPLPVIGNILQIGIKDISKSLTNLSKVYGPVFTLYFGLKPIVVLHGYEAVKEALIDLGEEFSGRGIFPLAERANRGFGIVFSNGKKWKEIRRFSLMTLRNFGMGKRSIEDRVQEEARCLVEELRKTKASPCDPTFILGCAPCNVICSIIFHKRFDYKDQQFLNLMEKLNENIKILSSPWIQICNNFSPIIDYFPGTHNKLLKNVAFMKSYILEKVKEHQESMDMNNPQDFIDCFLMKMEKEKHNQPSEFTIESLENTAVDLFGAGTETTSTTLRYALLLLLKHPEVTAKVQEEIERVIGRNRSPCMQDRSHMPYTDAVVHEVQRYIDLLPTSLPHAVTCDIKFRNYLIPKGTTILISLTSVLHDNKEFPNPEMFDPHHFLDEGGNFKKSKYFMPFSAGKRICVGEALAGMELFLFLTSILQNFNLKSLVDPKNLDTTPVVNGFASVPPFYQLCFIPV

CC(C)[C@@]1(NC(=O)[C@@H]2C=C3c4cccc5[nH]cc(c45)C[C@@H]3N(C)C2)O[C@]2(O)[C@H]3CCCN3C(=O)[C@H](Cc3ccccc3)N2C1=O
AC50 (Cytochrome P450 2C9): 10 µM (inconclusive)

Cc1cc(C)nc(SSc2nc(C)cc(C)n2)n1
IC50 [1]: 5.1 µM (active)
IC50 [2]: > 80 µM (inactive)
IC50 (Large T antigen): 28.2 µM (active)
IC50 [3]: > 100 µM (inactive)

CN(/N=C/c1cc(Br)cc(Br)c1O)c1cccc(C(F)(F)F)n1
CC50 [4]: 17.6 µM (active)
AC50 [5]: 5.94 µM (active)
EC50 (Streptococcus): 9.95 µM (active)
EC50 (Streptokinase A): > 150 µM (not active)
AC50 (INS1): 10.7 µM (active)
IC50 (Beta-galactosidase [6]): > 66.6 µM (inactive)
EC50 [7]: 0.58 µM (active)

Cc1cc2nc(N3C(=O)CNC3=S)sc2cc1C
EC50 (Beta-galactosidase [8]): > 31.5 µM (inactive)
EC50 (Streptococcus): 10.6 µM (active)
EC50 (Streptokinase A): > 150 µM (not active)
IC50 [9]: > 32 µM
IC50 (Beta-galactosidase [6]): > 66.6 µM (inactive)
EC50 [7]: 3.98 µM (active)
IC50 [10]: 8.55 µM (active)

Cc1ccc(NNS(=O)(=O)c2ccc(C)cc2)cc1
IC50 [1]: 37.9 µM (active)
IC50 [2]: > 80 µM (inactive)
AC50 (Cytochrome P450 3A4 [11]): 28.2 µM (inconclusive)

COc1cc(/C=N/n2c(S)nnc2COc2ccccc2)cc(Br)c1O
IC50 [1]: 2.19 µM (active)
IC50 [3]: > 100 µM (inactive)
AC50 [12]: 2.65 µM (active)

Cc1cc(SCC(=O)c2ccccc2)n2ncc(-c3ccccc3)c2n1
CC50 [13]: 25.8 µM (active)

CCc1ccc2nc(NC(=O)c3ccc4c(O)nc(CN5CCOCC5)nc4c3)sc2c1
IC50 (SUMO-activating enzyme [14]): 7.19 µM (active)
IC50 [15]: > 50 µM (inactive)
IC50 (Estrogen receptor): 8.23 µM (active)
IC50 [16]: 6.59 µM (active)
IC50 (SUMO-activating enzyme [17]): 3.54 µM (active)

O=C(COC(=O)c1cccc(S(=O)(=O)N2CCc3ccccc3C2)c1)NCc1ccco1
IC50 (Estrogen receptor): 25 µM (active)
IC50 (Estrogen receptor beta [18]): 0.0242 µM (not active)
IC50 (Estrogen receptor beta [19]): > 50 µM (not active)

C=CCC1C=CC(Oc2ccc(F)cc2C)C(CO)O1 (stereo not drawn)
AC50 (Cytochrome P450 2C9): 3.98 µM (inconclusive)

c1ccc2c3c([nH]c2c1)-c1n[nH]cc1CC3
IC50 [20]: 26.7 µM (inactive)
IC50 [21]: 10.5 µM (not active)
IC50 [22]: 52.1 µM (inactive)
IC50 [23]: 83.4 µM (inactive)
AC50 [24]: 3.79 µM (active)
EC50 (H4): > 120 µM (not active)
EC50 [25]: 18.7 µM (active)
EC50 [26]: > 120 µM (not active)

CCC(C)C(NC(N)=O)C(=O)Nc1ccc(OCc2ccccc2)cc1 (stereo not drawn)
CC50 [13]: > 40 µM (active)

CCOc1ccc(C(=O)N/N=C/c2cccc3cccnc23)cc1
CC50 [27]: > 20 µM (active)
IC50 (Nonstructural protein 1): 11.4 µM (active)
IC50 (Beta-galactosidase [6]): > 66.6 µM (inactive)
IC50 (cells): 2.75 µM (active)
CC50 [28]: 11.5 µM (active)

CCN(CC)c1ccc(C(=O)n2cnc3ccccc32)cc1
CC50 [13]: > 40 µM (active)

CC1CCC2C(=O)N3C(CCC(C)[C@H]3c3ccccc3Br)C(=O)N2C1c1ccccc1Br (stereo partly drawn)
AC50 (Cytochrome P450 2C9): 6.31 µM (inconclusive)
AC50 (Cytochrome P450 3A4 [29]): 1.26 µM (inconclusive)

CC1CCc2c(sc(NC(=O)COC(=O)c3ccccc3NCc3ccco3)c2C#N)C1 (stereo not drawn)
AC50 (Trypsin): 9.07 µM (active)
